Patent US9527867B2, “Antibacterial biaromatic derivatives” (Actelion Pharmaceuticals Ltd., priority 2013, dated 2016)
≈ marks a conversion by molar mass, not a printed value.

Columns and labels:
Assay in all cases: Bacterial growth minimal inhibitory concentration (broth microdilution, CLSI M7-A7)
Type in all cases: cell-based
[1] = tested on: Staphylococcus aureus A798; conditions: multiply-resistant strain (in particular quinolone-resistant); for MIC: Staphylococcus aureus, A798, cation-adjusted Mueller-Hinton Broth, read-out: MIC for S. aureus A798; for MIC for S. aureus A798: cation-adjusted Mueller-Hinton Broth
In short: (§1)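 Read-out is the minimal inhibitory concentration in mg/L, obtained by microdilution in cation-adjusted Mueller-Hinton broth following CLSI M7-A7. Quinolone resistance is present in A798 and T6474, which are multiply resistant, but absent in A894 and in methicillin-sensitive ATCC29213.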

[2] = tested on: Moraxella catarrhalis A894; conditions: quinolone-sensitive strain; for MIC: Moraxella catarrhalis, A894, cation-adjusted Mueller-Hinton Broth; for MIC for M. catarrhalis A894: cation-adjusted Mueller-Hinton Broth
In short: as §1

[3] = tested on: Enterococcus faecium A949; conditions: multiply-resistant strain (in particular quinolone-resistant); for MIC: Enterococcus faecium, A949, cation-adjusted Mueller-Hinton Broth, read-out: MIC for E. faecium A949; for MIC for E. faecium A949: cation-adjusted Mueller-Hinton Broth
In short: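 Broth microdilution after CLSI M7-A7 in cation-adjusted Mueller-Hinton medium gave MIC values in mg/L.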

[4] = tested on: Staphylococcus aureus ATCC29213; conditions: methicillin-sensitive and quinolone-sensitive strain; for MIC: Staphylococcus aureus, ATCC29213, cation-adjusted Mueller-Hinton Broth, read-out: MIC for S. aureus ATCC29213; for MIC for S. aureus ATCC29213: cation-adjusted Mueller-Hinton Broth
In short: as §1

[5] = tested on: Acinetobacter baumannii T6474; conditions: multiply-resistant strain (in particular quinolone-resistant); for MIC: Acinetobacter baumannii, T6474, cation-adjusted Mueller-Hinton Broth; for MIC for A. baumannii T6474: cation-adjusted Mueller-Hinton Broth
In short: as §1

COc1cc(-c2cccc(CNCC[C@@H]3CN(c4ccc5c(c4)NC(=O)CS5)C(=O)O3)c2)ccc1C(N)=O [Example 29, 3-methoxy-3′-({2-[(R)-2-oxo-3-(3-oxo-3,4-dihydro-2H-benzo[1,4]thiazin-6-yl)-oxazolidin-5-yl]-ethylamino}-methyl)-biphenyl-4-carboxylic acid amide]
MIC [1]: 2 µg/mL (≈ 3.76 µM) | MIC [2]: 0.063 µg/mL (≈ 0.118 µM) | MIC [3]: 8 µg/mL (≈ 15 µM) | MIC [4]: 1 µg/mL (≈ 1.88 µM) | MIC [5]: 2 µg/mL (≈ 3.76 µM)

COc1cnnc(-c2cccc(CNCC[C@@H]3CN(c4ccc5c(n4)NC(=O)CO5)C(=O)O3)c2)c1 [Example 97, 6-((R)-5-{2-[3-(5-methoxy-pyridazin-3-yl)-benzylamino]-ethyl}-2-oxo-oxazolidin-3-yl)-4H-pyrido[3,2-b][1,4]oxazin-3-one]
MIC [1]: 0.25 µg/mL (≈ 0.525 µM) | MIC [2]: 0.031 µg/mL (≈ 0.0651 µM) | MIC [3]: 8 µg/mL (≈ 16.8 µM) | MIC [4]: 0.25 µg/mL (≈ 0.525 µM) | MIC [5]: 0.25 µg/mL (≈ 0.525 µM)

N#CC1(COc2cccc(-c3cccc(CNCC[C@H]4CN(c5ccc6c(n5)NC(=O)CO6)C(=O)O4)c3)c2)CCC1 [Example 71, 1-[3′-({2-[(S)-2-oxo-3-(3-oxo-3,4-dihydro-2H-pyrido[3,2-b][1,4]oxazin-6-yl)-oxazolidin-5-yl]-ethylamino}-methyl)-biphenyl-3-yloxymethyl]-cyclobutanecarbonitrile]
MIC [1]: 1 µg/mL (≈ 1.81 µM) | MIC [2]: 0.25 µg/mL (≈ 0.452 µM) | MIC [3]: 8 µg/mL (≈ 14.5 µM) | MIC [4]: 1 µg/mL (≈ 1.81 µM) | MIC [5]: > 8 µg/mL

COc1cnnc(-c2cc(CNCC[C@H]3CN(c4ccc5c(n4)NC(=O)CO5)C(=O)O3)ccc2O)c1 [Example 89, 6-((S)-5-{2-[4-hydroxy-3-(5-methoxy-pyridazin-3-yl)-benzylamino]-ethyl}-2-oxo-oxazolidin-3-yl)-4H-pyrido[3,2-b][1,4]oxazin-3-one]
MIC [1]: 0.063 µg/mL (≈ 0.128 µM) | MIC [2]: ≤ 0.016 µg/mL | MIC [3]: 8 µg/mL (≈ 16.2 µM) | MIC [4]: 0.063 µg/mL (≈ 0.128 µM) | MIC [5]: 0.125 µg/mL (≈ 0.254 µM)

COc1cc(-c2cccc(CNCC[C@H]3CN(c4ccc5c(n4)NC(=O)CO5)C(=O)O3)c2)ccn1 [Example 55, 6-((S)-5-{2-[3-(2-methoxy-pyridin-4-yl)-benzylamino]-ethyl}-2-oxo-oxazolidin-3-yl)-4H-pyrido[3,2-b][1,4]oxazin-3-one]
MIC [1]: 2 µg/mL (≈ 4.21 µM) | MIC [2]: 0.031 µg/mL (≈ 0.0652 µM) | MIC [3]: > 8 µg/mL | MIC [4]: 2 µg/mL (≈ 4.21 µM) | MIC [5]: 1 µg/mL (≈ 2.1 µM)

O=C1COc2ccc(N3C[C@H](CCNCc4cccc(-c5cccc(OCC6CCC6)c5)c4)OC3=O)nc2N1 [Example 50, 6-((S)-5-{2-[(3′-cyclobutylmethoxy-biphenyl-3-ylmethyl)-amino]-ethyl}-2-oxo-oxazolidin-3-yl)-4H-pyrido[3,2-b][1,4]oxazin-3-one]
MIC [1]: 2 µg/mL (≈ 3.78 µM) | MIC [2]: 0.5 µg/mL (≈ 0.946 µM) | MIC [3]: 8 µg/mL (≈ 15.1 µM) | MIC [4]: 4 µg/mL (≈ 7.57 µM) | MIC [5]: > 8 µg/mL

COc1ccnc(-c2cccc(CNCC[C@@H]3CN(c4ccc5c(c4)NC(=O)CS5)C(=O)O3)c2)c1 [Example 14, 6-((R)-5-{2-[3-(4-methoxy-pyridin-2-yl)-benzylamino]-ethyl}-2-oxo-oxazolidin-3-yl)-4H-benzo[1,4]thiazin-3-one]
MIC [1]: 0.125 µg/mL (≈ 0.255 µM) | MIC [2]: ≤ 0.016 µg/mL | MIC [3]: 2 µg/mL (≈ 4.08 µM) | MIC [4]: 0.125 µg/mL (≈ 0.255 µM) | MIC [5]: 0.25 µg/mL (≈ 0.51 µM)

COc1cccc(-c2cc(CNCC[C@@H]3CN(c4ccc5c(c4)NC(=O)CS5)C(=O)O3)ccn2)c1 [Example 39, 6-[(R)-5-(2-{[2-(3-methoxy-phenyl)-pyridin-4-ylmethyl]-amino}-ethyl)-2-oxo-oxazolidin-3-yl]-4H-benzo[1,4]thiazin-3-one]
MIC [1]: 1 µg/mL (≈ 2.04 µM) | MIC [2]: 0.125 µg/mL (≈ 0.255 µM) | MIC [3]: 4 µg/mL (≈ 8.15 µM) | MIC [4]: 1 µg/mL (≈ 2.04 µM) | MIC [5]: 2 µg/mL (≈ 4.08 µM)

6-((R)-5-{2-[3-(6-methoxy-pyridin-2-yl)-benzylamino]-ethyl}-2-oxo-oxazolidin-3-yl)-4H-pyrido[3,2-b][1,4]oxazin-3-one [Example 31]
MIC for S. aureus A798 [1]: 0.25 µg/mL | MIC for M. catarrhalis A894 [2]: ≦0.016 mg/L | MIC for E. faecium A949 [3]: 2 µg/mL | MIC for S. aureus ATCC29213 [4]: 0.25 µg/mL | MIC for A. baumannii T6474 [5]: 0.5 µg/mL

N#Cc1cnnc(-c2cccc(CNCC[C@H]3CN(c4ccc5c(n4)NC(=O)CO5)C(=O)O3)c2)c1 [Example 80, 6-[3-({2-[(S)-2-oxo-3-(3-oxo-3,4-dihydro-2H-pyrido[3,2-b][1,4]oxazin-6-yl)-oxazolidin-5-yl]-ethylamino}-methyl)-phenyl]-pyridazine-4-carbonitrile]
MIC [1]: 0.5 µg/mL (≈ 1.06 µM) | MIC [2]: 0.031 µg/mL (≈ 0.0658 µM) | MIC [3]: > 8 µg/mL | MIC [4]: 0.5 µg/mL (≈ 1.06 µM) | MIC [5]: 0.25 µg/mL (≈ 0.53 µM)

COc1ccnc(-c2cc(CNCC[C@H]3CN(c4ccc5c(n4)NC(=O)CO5)C(=O)O3)ccc2O)c1 [Example 101, 6-((S)-5-{2-[4-hydroxy-3-(4-methoxy-pyridin-2-yl)-benzylamino]-ethyl}-2-oxo-oxazolidin-3-yl)-4H-pyrido[3,2-b][1,4]oxazin-3-one]
MIC [1]: ≤ 0.016 µg/mL | MIC [2]: ≤ 0.016 µg/mL | MIC [3]: 2 µg/mL (≈ 4.07 µM) | MIC [4]: ≤ 0.016 µg/mL | MIC [5]: 0.125 µg/mL (≈ 0.254 µM)

COc1cccc(-c2cccc(CNCCc3cn(-c4ccc5c(n4)NC(=O)CO5)c(=O)o3)c2O)n1 [Example 85, 6-(5-{2-[2-hydroxy-3-(6-methoxy-pyridin-2-yl)-benzylamino]-ethyl}-2-oxo-oxazol-3-yl)-4H-pyrido[3,2-b][1,4]oxazin-3-one]
MIC [1]: ≤ 0.016 µg/mL | MIC [2]: ≤ 0.016 µg/mL | MIC [3]: 0.5 µg/mL (≈ 1.02 µM) | MIC [4]: ≤ 0.016 µg/mL | MIC [5]: 0.125 µg/mL (≈ 0.255 µM)

COc1cccc(-c2cccc(CNCCc3nn(-c4ccc5c(n4)NC(=O)CO5)c(=O)o3)c2)n1 [Example 51, 6-(5-{2-[3-(6-methoxy-pyridin-2-yl)-benzylamino]-ethyl}-2-oxo-[1,3,4]oxadiazol-3-yl)-4H-pyrido[3,2-b][1,4]oxazin-3-one]
MIC [1]: 1 µg/mL (≈ 2.11 µM) | MIC [2]: ≤ 0.016 µg/mL | MIC [3]: 2 µg/mL (≈ 4.22 µM) | MIC [4]: 0.5 µg/mL (≈ 1.05 µM) | MIC [5]: 0.5 µg/mL (≈ 1.05 µM)

COc1cccc(-c2cc(CNCC[C@H]3CN(c4ccc5c(n4)NC(=O)CO5)C(=O)O3)ccc2O)n1 [Example 109]
MIC for S. aureus A798 [1]: 0.031 µg/mL | MIC for M. catarrhalis A894 [2]: ≦0.016 mg/L | MIC for E. faecium A949 [3]: 2 µg/mL | MIC for S. aureus ATCC29213 [4]: 0.031 µg/mL | MIC for A. baumannii T6474 [5]: 0.125 µg/mL

COc1cncc(-c2cccc(CNCC[C@@H]3CN(c4ccc5c(c4)NC(=O)CS5)C(=O)O3)c2)c1 [Example 13, 6-((R)-5-{2-[3-(5-methoxy-pyridin-3-yl)-benzylamino]-ethyl}-2-oxo-oxazolidin-3-yl)-4H-benzo[1,4]thiazin-3-one]
MIC [1]: 0.063 µg/mL (≈ 0.128 µM) | MIC [2]: ≤ 0.016 µg/mL | MIC [3]: 1 µg/mL (≈ 2.04 µM) | MIC [4]: 0.063 µg/mL (≈ 0.128 µM) | MIC [5]: 0.125 µg/mL (≈ 0.255 µM)

N#Cc1cc(-c2cccc(CNCC[C@H]3CN(c4ccc5c(n4)NC(=O)CO5)C(=O)O3)c2)cnn1 [Example 60, 5-[3-({2-[(S)-2-oxo-3-(3-oxo-3,4-dihydro-2H-pyrido[3,2-b][1,4]oxazin-6-yl)-oxazolidin-5-yl]-ethylamino}-methyl)-phenyl]-pyridazine-3-carbonitrile]
MIC [1]: 4 µg/mL (≈ 8.48 µM) | MIC [2]: 0.063 µg/mL (≈ 0.134 µM) | MIC [3]: > 8 µg/mL | MIC [4]: 2 µg/mL (≈ 4.24 µM) | MIC [5]: 1 µg/mL (≈ 2.12 µM)

N#Cc1cccc(-c2cc(CNCC[C@H]3CN(c4ccc5c(n4)NC(=O)CO5)C(=O)O3)ccn2)c1 [Example 46, 3-[4-({2-[(S)-2-oxo-3-(3-oxo-3,4-dihydro-2H-pyrido[3,2-b][1,4]oxazin-6-yl)-oxazolidin-5-yl]-ethylamino}-methyl)-pyridin-2-yl]-benzonitrile]
MIC [1]: 0.5 µg/mL (≈ 1.06 µM) | MIC [2]: 0.031 µg/mL (≈ 0.0659 µM) | MIC [3]: 2 µg/mL (≈ 4.25 µM) | MIC [4]: 0.5 µg/mL (≈ 1.06 µM) | MIC [5]: 0.25 µg/mL (≈ 0.531 µM)

N#Cc1ccc(O)c(-c2cccc(CNCC[C@H]3CN(c4ccc5c(n4)NC(=O)CO5)C(=O)O3)c2)c1 [Example 45, 6-hydroxy-3′-({2-[(S)-2-oxo-3-(3-oxo-3,4-dihydro-2H-pyrido[3,2-b][1,4]oxazin-6-yl)-oxazolidin-5-yl]-ethylamino}-methyl)-biphenyl-3-carbonitrile]
MIC [1]: 4 µg/mL (≈ 8.24 µM) | MIC [2]: 0.125 µg/mL (≈ 0.257 µM) | MIC [3]: > 8 µg/mL | MIC [4]: 2 µg/mL (≈ 4.12 µM) | MIC [5]: 2 µg/mL (≈ 4.12 µM)

COc1ccc(-c2cccc(CNCC[C@H]3CN(c4ccc5c(n4)NC(=O)CO5)C(=O)O3)c2)nn1 [Example 79, 6-((S)-5-{2-[3-(6-methoxy-pyridazin-3-yl)-benzylamino]-ethyl}-2-oxo-oxazolidin-3-yl)-4H-pyrido[3,2-b][1,4]oxazin-3-one]
MIC [1]: 0.5 µg/mL (≈ 1.05 µM) | MIC [2]: 0.063 µg/mL (≈ 0.132 µM) | MIC [3]: 8 µg/mL (≈ 16.8 µM) | MIC [4]: 0.5 µg/mL (≈ 1.05 µM) | MIC [5]: 0.5 µg/mL (≈ 1.05 µM)

COc1nc(OC)nc(-c2cccc(CNCC[C@@H]3CN(c4ccc5c(c4)NC(=O)CS5)C(=O)O3)c2)n1 [Example 28, 6-((R)-5-{2-[3-(4,6-dimethoxy-[1,3,5]triazin-2-yl)-benzylamino]-ethyl}-2-oxo-oxazolidin-3-yl)-4H-benzo[1,4]thiazin-3-one]
MIC [1]: 0.25 µg/mL (≈ 0.478 µM) | MIC [2]: 0.063 µg/mL (≈ 0.121 µM) | MIC [3]: 4 µg/mL (≈ 7.65 µM) | MIC [4]: 0.25 µg/mL (≈ 0.478 µM) | MIC [5]: 1 µg/mL (≈ 1.91 µM)

COc1cnnc(-c2cccc(CNCCc3cn(-c4ccc5c(n4)NC(=O)CO5)c(=O)o3)c2)c1 [Example 83, 6-(5-{2-[3-(5-methoxy-pyridazin-3-yl)-benzylamino]-ethyl}-2-oxo-oxazol-3-yl)-4H-pyrido[3,2-b][1,4]oxazin-3-one]
MIC [1]: 0.063 µg/mL (≈ 0.133 µM) | MIC [2]: ≤ 0.016 µg/mL | MIC [3]: 2 µg/mL (≈ 4.22 µM) | MIC [4]: 0.063 µg/mL (≈ 0.133 µM) | MIC [5]: 0.063 µg/mL (≈ 0.133 µM)
